Experimental data reported in ChEMBL document CHEMBL1926563, “Synthesis, antimicrobial, antimycobacterial and structure-activity relationship of substituted pyrazolo-, isoxazolo-, pyrimido- and mercaptopyrimidocyclohepta[b]indoles” (2012).
Converted amounts (≈) assume the structure as drawn. The source made the active and inactive calls. No cut-off for these calls is given here.

What was measured:
Proteus vulgaris [1] = experiment: Antibacterial activity against Proteus vulgaris NCIM 2027 assessed as zone of inhibition at 200 ug/disc after 24 hrs by disk diffusion method; assay type: functional; conditions: NCIM 2027, 24 h, read-out: DIZ
Curvularia lunata [2] = experiment: Antifungal activity against Curvularia lunata NCIM 716 assessed as zone of inhibition at 100 ug/disc after 48 hrs by disk diffusion method; assay type: functional; conditions: NCIM 716, 48 h, read-out: DIZ
Staphylococcus aureus [3] = experiment: Antibacterial activity against Staphylococcus aureus NCIM 5021 assessed as zone of inhibition at 200 ug/disc after 24 hrs by disk diffusion method; assay type: functional; conditions: NCIM 5021, 24 h, read-out: DIZ
Klebsiella pneumoniae [4] = experiment: Antibacterial activity against Klebsiella pneumoniae NCIM 2957 assessed as zone of inhibition at 100 ug/disc after 24 hrs by disk diffusion method; assay type: functional; conditions: NCIM 2957, 24 h, read-out: DIZ
Aspergillus niger [5] = experiment: Antifungal activity against Aspergillus niger NCIM 596 assessed as zone of inhibition at 200 ug/disc after 48 hrs by disk diffusion method; assay type: functional; conditions: NCIM 596, 48 h, read-out: DIZ
Klebsiella pneumoniae [6] = experiment: Antibacterial activity against Klebsiella pneumoniae NCIM 2957 assessed as zone of inhibition at 200 ug/disc after 24 hrs by disk diffusion method; assay type: functional; conditions: NCIM 2957, 24 h, read-out: DIZ
Bacillus subtilis [7] = experiment: Antibacterial activity against Bacillus subtilis NCIM 2063 assessed as zone of inhibition at 200 ug/disc after 24 hrs by disk diffusion method; assay type: functional; conditions: NCIM 2063, 24 h, read-out: DIZ
Fusarium solani [8] = experiment: Antifungal activity against Fusarium solani NCIM 1330 assessed as zone of inhibition at 200 ug/disc after 48 hrs by disk diffusion method; assay type: functional; conditions: NCIM 1330, 48 h, read-out: DIZ
Bacillus subtilis [9] = experiment: Antibacterial activity against Bacillus subtilis NCIM 2063 assessed as zone of inhibition at 100 ug/disc after 24 hrs by disk diffusion method; assay type: functional; conditions: NCIM 2063, 24 h, read-out: DIZ
Staphylococcus aureus [10] = experiment: Antibacterial activity against Staphylococcus aureus NCIM 5021 assessed as zone of inhibition at 100 ug/disc after 24 hrs by disk diffusion method; assay type: functional; conditions: NCIM 5021, 24 h, read-out: DIZ
Fusarium solani [11] = experiment: Antifungal activity against Fusarium solani NCIM 1330 assessed as zone of inhibition at 100 ug/disc after 48 hrs by disk diffusion method; assay type: functional; conditions: NCIM 1330, 48 h, read-out: DIZ
Proteus vulgaris [12] = experiment: Antibacterial activity against Proteus vulgaris NCIM 2027 assessed as zone of inhibition at 100 ug/disc after 24 hrs by disk diffusion method; assay type: functional; conditions: NCIM 2027, 24 h, read-out: DIZ
Aspergillus niger [13] = experiment: Antifungal activity against Aspergillus niger NCIM 596 assessed as zone of inhibition at 100 ug/disc after 48 hrs by disk diffusion method; assay type: functional; conditions: NCIM 596, 48 h, read-out: DIZ
[14] = test system: Mycobacterium tuberculosis; experiment: Antimycobacterial activity against Mycobacterium tuberculosis H37Rv after 7 days by resazurin microtiter plate assay; assay type: functional; conditions: 168 h
Curvularia lunata [15] = experiment: Antifungal activity against Curvularia lunata NCIM 716 assessed as zone of inhibition at 200 ug/disc after 48 hrs by disk diffusion method; assay type: functional; conditions: NCIM 716, 48 h, read-out: DIZ
[16] = test system: Mycobacterium tuberculosis; experiment: Antimycobacterial activity against Mycobacterium tuberculosis H37Rv at 1.5 to 50 ug/ml after 7 days by resazurin microtiter plate assay; assay type: functional, organism-based

Compound | zone of inhibition at 200 µg/disc (Proteus vulgaris [1]) [mm] | zone of inhibition at 100 µg/disc (Curvularia lunata [2]) [mm] | zone of inhibition at 200 µg/disc (Staphylococcus aureus [3]) [mm] | zone of inhibition at 100 µg/disc (Klebsiella pneumoniae [4]) [mm] | zone of inhibition at 200 µg/disc (Aspergillus niger [5]) [mm] | zone of inhibition at 200 µg/disc (Klebsiella pneumoniae [6]) [mm] | zone of inhibition at 200 µg/disc (Bacillus subtilis [7]) [mm] | zone of inhibition at 200 µg/disc (Fusarium solani [8]) [mm] | zone of inhibition at 100 µg/disc (Bacillus subtilis [9]) [mm] | zone of inhibition at 100 µg/disc (Staphylococcus aureus [10]) [mm] | zone of inhibition at 100 µg/disc (Fusarium solani [11]) [mm] | zone of inhibition at 100 µg/disc (Proteus vulgaris [12]) [mm] | zone of inhibition at 100 µg/disc (Aspergillus niger [13]) [mm] | MIC [14] [µg/mL] | zone of inhibition at 200 µg/disc (Curvularia lunata [15]) [mm] | MIC [16]
Cc1ccc2[nH]c3c(c2c1)CCCc1conc1-3 | 28 | 29 | 31 | 26 | 31 | 29 | 32 | 34 | 30 | 29 | 31 | 26 | 28 | 50 (≈ 210 µM) | 32 | 
Sc1ncc2c(n1)-c1[nH]c3ccccc3c1CCC2 | 10 | 13 | 13 | 9 | 13 | 11 | 14 | 14 | 12 | 11 | 11 | 8 | 10 |  | 16 | inactive
Cc1ccc2c3c([nH]c2c1)C(=O)/C(=C/O)CCC3 |  |  |  |  |  |  |  |  |  |  |  |  |  |  |  | inactive
Cc1cccc2c3c([nH]c12)C(=O)/C(=C/O)CCC3 |  |  |  |  |  |  |  |  |  |  |  |  |  | 50 (≈ 207 µM) |  | 
Cc1ccc2[nH]c3c(c2c1)CCCc1cnc(O)nc1-3 | 21 | 18 | 25 | 21 | 18 | 23 | 24 | 19 | 21 | 23 | 14 | 19 | 15 | 50 (≈ 188 µM) | 21 | 
Oc1ncc2c(n1)-c1[nH]c3ccccc3c1CCC2 | 23 | 16 | 28 | 22 | 15 | 24 | 29 | 16 | 27 | 25 | 13 | 21 | 11 |  | 18 | inactive
Cc1ccc2c3c([nH]c2c1)-c1n[nH]cc1CCC3 |  |  |  |  |  |  |  |  |  |  |  |  |  | 25 (≈ 105 µM) |  | 
Cc1ccc2c3c([nH]c2c1)-c1nc(O)ncc1CCC3 |  |  |  |  |  |  |  |  |  |  |  |  |  |  |  | inactive
Cc1cccc2c3c([nH]c12)-c1nc(O)ncc1CCC3 |  |  |  |  |  |  |  |  |  |  |  |  |  |  |  | inactive
Cc1ccc2c3c([nH]c2c1)-c1nocc1CCC3 |  |  |  |  |  |  |  |  |  |  |  |  |  | 25 (≈ 105 µM) |  | 
Cc1cccc2c3c([nH]c12)-c1c(cnn1-c1ccccc1)CCC3 |  |  |  |  |  |  |  |  |  |  |  |  |  | 25 (≈ 79.8 µM) |  | 
O=C1/C(=C/O)CCCc2c1[nH]c1ccccc21 | 25 | 24 | 26 | 24 | 25 | 26 | 27 | 23 | 26 | 24 | 21 | 23 | 23 | 50 (≈ 220 µM) | 25 | 
Cc1cccc2c3c([nH]c12)-c1n[nH]cc1CCC3 |  |  |  |  |  |  |  |  |  |  |  |  |  | 25 (≈ 105 µM) |  | 
O=C1/C(=C/O)CCCc2c1[nH]c1ccc(Cl)cc21 | 28 | 27 | 33 | 28 | 31 | 30 | 32 | 30 | 28 | 31 | 29 | 25 | 25 | 25 (≈ 95.5 µM) | 30 | 
Cc1ccc2c3c([nH]c2c1)-c1nc(S)ncc1CCC3 |  |  |  |  |  |  |  |  |  |  |  |  |  | 50 (≈ 178 µM) |  | 
Cc1cccc2c3c([nH]c12)-c1nc(S)ncc1CCC3 |  |  |  |  |  |  |  |  |  |  |  |  |  | 50 (≈ 178 µM) |  | 
Cc1cccc2c3c([nH]c12)-c1nocc1CCC3 |  |  |  |  |  |  |  |  |  |  |  |  |  | 25 (≈ 105 µM) |  | 
Cc1ccc2[nH]c3c(c2c1)CCCc1c[nH]nc1-3 | 25 | 33 | 32 | 28 | 34 | 30 | 33 | 37 | 31 | 30 | 34 | 24 | 31 | 50 (≈ 211 µM) | 36 | 
Cc1ccc2[nH]c3c(c2c1)CCC/C(=C\O)C3=O | 25 | 26 | 29 | 25 | 27 | 28 | 30 | 26 | 28 | 26 | 23 | 22 | 23 | 25 (≈ 104 µM) | 28 | 
Cc1ccc2c3c([nH]c2c1)-c1c(cnn1-c1ccccc1)CCC3 |  |  |  |  |  |  |  |  |  |  |  |  |  | 25 (≈ 79.8 µM) |  | 
Cc1ccc2[nH]c3c(c2c1)CCCc1cnc(S)nc1-3 | 12 | 16 | 15 | 11 | 16 | 12 | 16 | 16 | 14 | 13 | 13 | 10 | 14 | 50 (≈ 178 µM) | 20 | 
